Assay results from ChEMBL document CHEMBL5096228, “Targeting Vancomycin-Resistant Enterococci (VRE) Infections and Van Operon-Mediated Drug Resistance Using Dimeric Cholic Acid-Peptide Conjugates” (J Med Chem, 2022).
Converted amounts (≈) assume the structure as drawn. The source made the active and inactive calls. No cut-off for these calls is given here.

Experiments:
Staphylococcus aureus [1] = assay: Antimicrobial activity against Staphylococcus aureus ATCC 25923 assessed as growth inhibition after 14 to 16 hrs by CLSI based broth dilution method; format: functional; details: time 14-16 hrs
Enterococcus faecium [2] = assay: Antimicrobial activity against Enterococcus faecium assessed as growth inhibition after 14 to 16 hrs by CLSI based broth dilution method; format: functional; details: time 14-16 hrs
Staphylococcus aureus [3] = assay: Antimicrobial activity against methicillin-resistant Staphylococcus aureus ATCC 33591 assessed as growth inhibition after 14 to 16 hrs by CLSI based broth dilution method; format: functional; details: time 14-16 hrs
Enterococcus faecium [4] = assay: Antimicrobial activity against Vancomycin-resistant Enterococcus faecium ATCC 51559 assessed as growth inhibition after 14 to 16 hrs by CLSI based broth dilution method; format: functional; details: time 14-16 hrs
[5] = Cytotoxicity against mouse LLC cells assessed as reduction in cell viability; format: toxicity, cell-based; details: LLC (3LL) cells
Mus musculus = assay: Antimicrobial activity against Vancomycin-resistant Enterococcus faecium ATCC 51559 induced wound in BALB/c mouse assessed as log reduction in colony forming unit at 40 mg/kg administered topically 3 times daily for 3 days; format: functional; details: route top, time 3 day
Enterococcus faecium [6] = assay: Resistance development in vancomycin-susceptible Enterococcus faecium assessed as vancomycin MIC99 at 2 ug/ml measured after 110 vancomycin passages; format: functional, organism-based; details: dose 2.0 µg/ml
Enterococcus faecium [7] = assay: Development of drug resistance in vancomycin-resistant Enterococcus faecium ATCC 51559 assessed as increase in TN1546 expression measured after 7 days; format: functional; details: time 7 day
Enterococcus faecium [8] = assay: Bactericidal activity against Vancomycin-resistant Enterococcus faecium ATCC 51559 assessed as inhibition of bacterial growth at 4 to 16 ug/ml measured upto 24 hrs by time-kill assay; format: functional, organism-based; details: dose 4-16 µg/ml
[9] = Hemolytic activity in human RBC at 50 ug/ml; format: toxicity, cell-based, Erythrocyte; details: red blood cells (erythrocytes), at 50 µg/mL, read-out: Activity
Cell membrane [10] = assay: Induction of membrane disruption in Vancomycin-resistant Enterococcus faecium ATCC 51559 at 4 to 16 ug/ml measured after 15 mins by DiSC2(5) dye based multimode plate reader assay; format: functional, subcellular; details: dose 4-16 µg/ml
Enterococcus faecium [11] = assay: Induction of reactive oxygen species generation in Enterococcus faecium ATCC 51559 incubated for 1 hr by DCFH-DA based fluorescent microscopy; format: functional, organism-based
[12] = Induction of membrane-permeabilization in Enterococcus faecium ATCC 51559 at 4 ug/ml measured after 1 hr by PI staining based flow cytometry analysis; details: at 4 µg/mL
Enterococcus faecium [13] = assay: Induction of membrane-permeabilization in Enterococcus faecium ATCC 51559 at 8 ug/ml measured after 1 hr by PI staining based flow cytometry analysis; format: functional; details: dose 8.0 µg/ml
Enterococcus faecium [14] = assay: Membrane permeabilization in Enterococcus faecium ATCC 51559 at 16 ug/ml measured after 1 hr by PI staining based flow cytometry analysis; format: functional; details: dose 16 µg/ml
Cell membrane [15] = assay: Disruption of membrane in Enterococcus faecium ATCC 51559 at 4 to 16 ug/ml measured after 1 hr by SYTO9/PI staining based fluorometric analysis; format: subcellular; details: dose 4-16 µg/ml
Cell membrane [16] = assay: Disruption of membrane in Enterococcus faecium ATCC 51559 at 4 ug/ml by SYTO9/PI staining based fluorometric analysis; details: dose 4.0 µg/ml, time 1-6 hrs, TDE = time-dependent effect
Enterococcus faecium [17] = assay: Antibiofilm activity against Vancomycin-resistant Enterococcus faecium ATCC 51559 assessed as log reduction in colony forming unit incubated for 12 hrs by SYTO9 and PI staining based fluorescence assay; format: functional, organism-based; details: dose 4-16 µg/ml, DDE = dose-dependent effect
Enterococcus faecium [18] = assay: Antibiofilm activity against Vancomycin-resistant Enterococcus faecium ATCC 51559 assessed as log reduction in colony forming unit at 16 ug/ml incubated for 12 hrs by SYTO9 and PI staining based fluorescence assay; format: functional; details: dose 16 µg/ml
Enterococcus faecium [19] = assay: Antibiofilm activity against Vancomycin-resistant Enterococcus faecium ATCC 51559 assessed as log reduction in colony forming unit at 32 ug/ml incubated for 12 hrs by SYTO9 and PI staining based fluorescence assay; format: functional; details: dose 32 µg/ml
Enterococcus faecium [20] = assay: Antibiofilm activity against Vancomycin-resistant Enterococcus faecium ATCC 51559 assessed as log reduction in colony forming unit at 16 ug/ml by SYTO9 and PI staining based fluorescence assay; format: functional, organism-based; details: dose 16.0 µg/ml, time 1-6 hrs, TDE = time-dependent effect
Enterococcus faecium [21] = assay: Antibiofilm activity against Vancomycin-resistant Enterococcus faecium ATCC 51559 assessed as log reduction in colony forming unit at 16 ug/ml incubated for 3 hrs by SYTO9 and PI staining based fluorescence assay; format: functional; details: dose 16 µg/ml
Enterococcus faecium [22] = assay: Antimicrobial activity against vancomycin-susceptible Enterococcus faecium induced wound in BALB/c mouse assessed as log reduction in colony forming unit at 40 mg/kg administered topically 3 times daily for 3 days; format: functional, organism-based; details: route top, time 3.0 day
Enterococcus faecium [23] = assay: Resistance development in vancomycin-resistance Enterococcus faecium ATCC 51559 assessed as decrease CFU measured in presence of vancomycin; format: functional, organism-based
Enterococcus faecium [24] = assay: Development of drug resistance in vancomycin-resistant Enterococcus faecium ATCC 51559 assessed as increase in TN1546 expression measured after 7 days in presence of vancomycin; format: functional, organism-based; details: time 7.0 day
Enterococcus faecium [25] = assay: Inhibition of vancomycin-resistance in Enterococcus faecium ATCC 51559 assessed as increase in vanR expression at 2 ug/ml measured after 1 hr by qRT-PCR analysis; format: functional; details: dose 2.0 µg/ml
Enterococcus faecium [26] = assay: Inhibition of vancomycin-resistance in Enterococcus faecium ATCC 51559 assessed as increase in vanS expression at 2 ug/ml measured after 1 hr by qRT-PCR analysis; format: functional; details: dose 2.0 µg/ml
Enterococcus faecium [27] = assay: Inhibition of vancomycin-resistance in Enterococcus faecium ATCC 51559 assessed as increase in vanH expression at 2 ug/ml measured after 1 hr by qRT-PCR analysis; format: functional; details: dose 2.0 µg/ml
Enterococcus faecium [28] = assay: Inhibition of vancomycin-resistance in Enterococcus faecium ATCC 51559 assessed as increase in vanA expression at 2 ug/ml measured after 1 hr by qRT-PCR analysis; format: functional; details: dose 2.0 µg/ml
Enterococcus faecium [29] = assay: Inhibition of vancomycin-resistance in Enterococcus faecium ATCC 51559 assessed as increase in vanX expression at 2 ug/ml measured after 1 hr in presence of vancomycin by qRT-PCR analysis; format: functional; details: dose 2.0 µg/ml
Enterococcus faecium [30] = assay: Inhibition of vancomycin-resistance in Enterococcus faecium ATCC 51559 assessed as increase in vanY expression at 2 ug/ml measured after 1 hr by qRT-PCR analysis; format: functional; details: dose 2.0 µg/ml
Enterococcus faecium [31] = assay: Inhibition of vancomycin-resistance in Enterococcus faecium ATCC 51559 assessed as increase in vanZ expression at 2 ug/ml measured after 1 hr by qRT-PCR analysis; format: functional; details: dose 2.0 µg/ml
Enterococcus faecium [32] = assay: Inhibition of vancomycin-resistance in Enterococcus faecium ATCC 51559 assessed as reduction in vanR expression at 2 ug/ml measured after 1 hr in presence of vancomycin by qRT-PCR analysis; format: functional; details: dose 2.0 µg/ml
Enterococcus faecium [33] = assay: Inhibition of vancomycin-resistance in Enterococcus faecium ATCC 51559 assessed as reduction in vanS expression at 2 ug/ml measured after 1 hr in presence of vancomycin by qRT-PCR analysis; format: functional; details: dose 2.0 µg/ml
Enterococcus faecium [34] = assay: Inhibition of vancomycin-resistance in Enterococcus faecium ATCC 51559 assessed as reduction in vanH expression at 2 ug/ml incubated for 1 hr measured after 7 days in presence of vancomycin by qRT-PCR analysis; format: functional; details: dose 2.0 µg/ml
Enterococcus faecium [35] = assay: Inhibition of vancomycin-resistance in Enterococcus faecium ATCC 51559 assessed as reduction in vanA expression at 2 ug/ml incubated for 1 hr measured after 7 days in presence of vancomycin by qRT-PCR analysis; format: functional; details: dose 2.0 µg/ml
Enterococcus faecium [36] = assay: Inhibition of vancomycin-resistance in Enterococcus faecium ATCC 51559 assessed as reduction in vanX expression at 2 ug/ml incubated for 1 hr measured after 7 days in presence of vancomycin by qRT-PCR analysis; format: functional; details: dose 2.0 µg/ml
Enterococcus faecium [37] = assay: Inhibition of vancomycin-resistance in Enterococcus faecium ATCC 51559 assessed as reduction in vanY expression at 2 ug/ml incubated for 1 hr measured after 7 days in presence of vancomycin by qRT-PCR analysis; format: functional; details: dose 2.0 µg/ml
Enterococcus faecium [38] = assay: Inhibition of vancomycin-resistance in Enterococcus faecium ATCC 51559 assessed as reduction in vanZ expression at 2 ug/ml incubated for 1 hr measured after 7 days in presence of vancomycin by qRT-PCR analysis; format: functional; details: dose 2.0 µg/ml

Question: With `CN[C@H](CC(C)C)C(=O)N[C@H]1C(=O)N[C@@H](CC(N)=O)C(=O)N[C@H]2C(=O)N[C@H]3C(=O)N[C@H](C(=O)N[C@H](C(=O)O)c4cc(O)cc(O)c4-c4cc3ccc4O)[C@H](O)c3ccc(c(Cl)c3)Oc3cc2cc(c3O[C@@H]2O[C@H](CO)[C@@H](O)[C@H](O)[C@H]2O[C@H]2C[C@](C)(N)[C@H](O)[C@H](C)O2)Oc2ccc(cc2Cl)[C@H]1O` [VANCOMYCIN] as the molecule, how does the MIC99 (Staphylococcus aureus [1]) read?
Answer: 8 µg/mL (≈ 5.52 µM)

Question: And the MIC99 (Enterococcus faecium [2])?
Answer: 4 µg/mL (≈ 2.76 µM)

Question: What about the MIC99 (Staphylococcus aureus [3]) of the same molecule?
Answer: 2 µg/mL (≈ 1.38 µM)

Question: And the MIC99 (Enterococcus faecium [4])?
Answer: > 128 µg/mL

Question: What about the IC50 [5] of the same molecule?
Answer: > 1000 µM

Question: What about the “log(activity)” value (Mus musculus) of the same molecule?
Answer: 2

Question: And the Activity (Enterococcus faecium [6])?
Answer: Active

Question: What about the “fold change (FC)” value (Enterococcus faecium [7]) of the same molecule?
Answer: 3

Question: For `CC(C)C(N)C(=O)NCC(=O)O[C@@H]1CC[C@@]2(C)[C@@H](C1)C[C@@H](OC(=O)CNC(=O)C(N)C(C)C)[C@@H]1[C@@H]2C[C@H](OC(=O)CNC(=O)C(N)C(C)C)[C@]2(C)[C@@H]([C@H](C)CCC(=O)NCc3cn(CCCn4cc(CNC(=O)CC[C@@H](C)[C@H]5CC[C@H]6[C@@H]7[C@H](OC(=O)CNC(=O)C(N)C(C)C)C[C@@H]8C[C@H](OC(=O)CNC(=O)C(N)C(C)C)CC[C@]8(C)[C@H]7C[C@H](OC(=O)CNC(=O)C(N)C(C)C)[C@]56C)nn4)nn3)CC[C@@H]12.Cl.Cl.Cl.Cl.Cl.Cl` (stereo not given in full), which Activity (Enterococcus faecium [8]) is on record?
Answer: Active

Question: What about the MIC99 (Staphylococcus aureus [1]) of the same molecule?
Answer: 64 µg/mL

Question: What about the MIC99 (Enterococcus faecium [2]) of the same molecule?
Answer: 16 µg/mL

Question: And the MIC99 (Staphylococcus aureus [3])?
Answer: 16 µg/mL

Question: What about the MIC99 (Enterococcus faecium [4]) of the same molecule?
Answer: 4 µg/mL

Question: And the IC50 [5]?
Answer: 414 µg/mL

Question: What about the hemolysis at 50 ug/ml [9] of the same molecule?
Answer: 5%

Question: And the Activity (Cell membrane [10])?
Answer: Active

Question: What about the Activity (Enterococcus faecium [11]) of the same molecule?
Answer: Active

Question: What about the Activity [12] of the same molecule?
Answer: 90%

Question: And the Activity (Enterococcus faecium [13])?
Answer: 90%

Question: And the Activity (Enterococcus faecium [14])?
Answer: 90%

Question: And the Activity (Cell membrane [15])?
Answer: Active

Question: And the Activity (Cell membrane [16])?
Answer: Tde

Question: What about the Activity (Enterococcus faecium [17]) of the same molecule?
Answer: Dde

Question: And the “log(activity)” value (Enterococcus faecium [18])?
Answer: 3

Question: And the “log(activity)” value (Enterococcus faecium [19])?
Answer: 5

Question: What about the Activity (Enterococcus faecium [20]) of the same molecule?
Answer: Tde

Question: And the “log(activity)” value (Enterococcus faecium [21])?
Answer: 3

Question: What about the “log(activity)” value (Mus musculus) of the same molecule?
Answer: 1

Question: And the Activity (Enterococcus faecium [22])?
Answer: Active

Question: What about the Activity (Enterococcus faecium [23]) of the same molecule?
Answer: Active

Question: And the Activity (Enterococcus faecium [24])?
Answer: Active

Question: And the Activity (Enterococcus faecium [25])?
Answer: Active

Question: What about the Activity (Enterococcus faecium [26]) of the same molecule?
Answer: Active

Question: What about the Activity (Enterococcus faecium [27]) of the same molecule?
Answer: Active

Question: What about the Activity (Enterococcus faecium [28]) of the same molecule?
Answer: Active

Question: And the Activity (Enterococcus faecium [29])?
Answer: Active

Question: And the Activity (Enterococcus faecium [30])?
Answer: Active

Question: And the Activity (Enterococcus faecium [31])?
Answer: Active

Question: And the Activity (Enterococcus faecium [32])?
Answer: Active

Question: And the Activity (Enterococcus faecium [33])?
Answer: Active

Question: And the Activity (Enterococcus faecium [34])?
Answer: Active

Question: What about the Activity (Enterococcus faecium [35]) of the same molecule?
Answer: Active

Question: And the Activity (Enterococcus faecium [36])?
Answer: Active

Question: And the Activity (Enterococcus faecium [37])?
Answer: Active

Question: What about the Activity (Enterococcus faecium [38]) of the same molecule?
Answer: Active
